Assay results reported in patent publication US9174992B2, “Heterobicyclic compounds” (Amgen Inc., priority 2012, dated 2015).

Biological target: PDE10A (UniProt Q9Y233)
Test: PDE10 enzyme inhibition, IMAP TR-FRET assay (Example A, MPDE10A7 Enzyme Activity and Inhibition)
Assay type: biochemical
Details: approximate IC50 value, Table 10
Description: Enzyme Activity. An IMAP TR-FRET assay was used to analyze the enzyme activity (Molecular Devices Corp., Sunnyvale Calif.). 10 μL of serial diluted PDE10A (BPS Bioscience, San Diego, Calif.) or tissue homogenate was incubated with equal volumes of diluted fluorescein labeled cAMP or cGMP for 90 min in 384-well Polypropylene assay plates (Greiner, Monroe, N.C.) at room temperature. After incubation, the reaction was stopped by adding 55 μL of diluted binding reagents and was incubated for 4 hours to overnight at room temperature. The plates were read on an Envision (Perkin Elmer, Waltham, Mass.) for time resolved fluorescence resonance energy transfer. The data were analyzed with Genedata Screener® (Lexington, Mass.).
Enzyme Inhibition. To check the inhibition profile, 0.2 μL of serial diluted compounds were incubated with 10 μL of diluted PDE10 enzyme (BPS Bioscience, San Diego, Calif.) or tissue homogenate in a 384-well Polypropylene assay plate (Greiner, Monroe, N.C.) for 60 min at room temperature. After incubation, 10 μL of diluted fluorescein labeled cAMP or cGMP substrate were added and incubated for 90 min at room temperature. The reaction was stopped by adding 55 μL of diluted binding reagents and plates were read on an Envision (Perkin Elmer, Waltham, Mass.) for time resolved fluorescence resonance energy transfer. The data were analyzed with Genedata Screener® (Lexington, Mass.).
IC50 curves were generated from the raw data collected from the […] and fitted with a four-parameter logistic equation using in-house data analysis tool, Activity Base.

SMILES | IC50 [nM]
CC1(C)C(=O)N([C@H]2C[C@H](Nc3nc4ccccc4s3)C2)c2nccnc21 [Example 34, 5-(trans-3-(benzo[d]thiazol-2-ylamino)cyclobutyl)-7,7-dimethyl-5H-pyrrolo[2,3-b]pyrazin-6(7H)-one] | 0.107
CC1(C)C(=O)N([C@H]2CCN(c3nc4ccccc4s3)C2)c2nccnc21 [Example 141, (S)-5-(1-(benzo[d]thiazol-2-yl)pyrrolidin-3-yl)-7,7-dimethyl-5H-pyrrolo[2,3-b]pyrazin-6(7H)-one] | 295
CC1(C)C(=O)N([C@H]2C[C@H](Nc3cccnn3)C2)c2ncccc21 [Example 68, 3,3-Dimethyl-1-(trans-3-(pyridazin-3-ylamino)cyclobutyl)-1H-pyrrolo[2,3-b]pyridine-2(3H)-one] | 158
Oc1ncnc2c1nc(C(F)(F)F)n2[C@H]1C[C@H](Nc2ncc3ccccc3n2)C1 [Example 23, 9-(trans-3-(quinazolin-2-ylamino)cyclobutyl)-8-(trifluoromethyl)-9H-purin-6-ol] | 440
O=C1N([C@H]2C[C@H](Nc3nc4ccccc4s3)C2)c2ncccc2C12CCC2 [Example 35, 1′-(trans-3-(benzo[d]thiazol-2-ylamino)cyclobutyl)spiro[cyclobutane-1,3′-pyrrolo[2,3-b]pyridin]-2′(1′H)-one] | 0.115
c1cnc2c(c1)nc(C1CC1)n2[C@H]1C[C@H](Nc2ccc3ccncc3n2)C1 [Example 18, N-(Trans-3-(2-cyclopropyl-3H-imidazo[4,5-b]pyridin-3-yl)cyclobutyl)-1,7-naphthyridin-2-amine] | 28.4
CC1(C)C(=O)N([C@H]2C[C@H](Nc3ncccc3F)C2)c2ncccc21 [Example 52, 1-(Trans-3-((3-fluoropyridin-2-yl)amino)cyclobutyl)-3,3-dimethyl-1H-pyrrolo[2,3-b]pyridin-2(3H)-one] | 5.69
Cc1ccc(N[C@H]2CC[C@H](N3C(=O)C(C)(C)c4nccnc43)CC2)nc1 [Example 75, 7,7-Dimethyl-5-(trans-4-((5-methylpyridin-2-yl)amino)cyclohexyl)-5H-pyrrolo[2,3-b]pyrazin-6(7H)-one] | 5.02
Clc1ncnc2c1ncn2[C@H]1C[C@H](Nc2ncc3ccccc3n2)C1 [Example 21, N-(Trans-3-(6-chloro-9H-purin-9-yl)cyclobutyl)quinazolin-2-amine] | 88.4
CC1(C)C(=O)N([C@H]2C[C@H](Nc3ncc(Br)cn3)C2)c2ncccc21 [Example 60, 1-(Trans-3-((5-bromopyrimidin-2-yl)amino)cyclobutyl)-3,3-dimethyl-1H-pyrrolo[2,3-b]pyridin-2(3H)-one] | 19.3

Continued, values first:

IC50 [nM] | SMILES
0.449 | O=C1N([C@H]2C[C@H](Nc3nc4ccccc4s3)C2)c2ncccc2C1(F)F [Example 212, 1-(trans-3-(benzo[d]thiazol-2-ylamino)cyclobutyl)-3,3-difluoro-1-H-pyrrolo[2,3-b]pyridin-2-(3H)-one]
2490 | N#CC1(NC(=O)c2cnc(N[C@H]3C[C@H](n4c(=O)n(C5CC5)c5nccnc54)C3)s2)CC1 [Example 151, N-(1-cyanocyclopropyl)-2-((trans-3-(3-cyclopropyl-2-oxo-2,3-dihydro-1H-imidazo[4,5-b]pyrazin-1-yl)cyclobutyl)amino)thiazole-5-carboxamide]
0.111 | O=C1N([C@H]2C[C@H](Nc3nc4ccccc4s3)C2)c2ncc(Cl)cc2C1(F)F [Example 211, 1-(trans-3-(benzo[d]thiazol-2-ylamino)cyclobutyl)-5-chloro-3,3-difluoro-1H-pyrrolo[2,3-b]pyridin-2(3 H)-one]
15.1 | CC1(C)C(=O)N(C2CCN(c3ccc4cc(F)ccc4n3)CC2)c2ncccc21 [Example 194, 1-(1-(6-fluoroquinolin-2-yl)piperidin-4-yl)-3,3-dimethyl-1H-pyrrolo[2,3-b]pyridin-2(3 H)-one]
16.9 | Cn1c(=O)n([C@H]2C[C@@H](Nc3nc4ccccc4s3)C2)c2nccnc21 [Example 216, 1-(cis-3-(benzo[d]thiazol-2-ylamino)cyclobutyl)-3-methyl-1H-imidazo[4,5-b]pyrazin-2(3H)-one]
